This experiment addresses Mitogen-activated protein kinase 1 (Homo sapiens, UniProt P28482). The experiment is described as follows: Enzymatic Assay: Compounds were tested in an enzymatic assay using human ERK-2 (Mitogen Activated Kinase 1), recombinantly expressed as an n-terminal 6-His fusion protein in E. coli and corresponding to a 8-360. The substrate used was the fluorescent Omnia peptide S/T17 (Invitrogen of Carlsbad, Calif.; Cat. KNZ1171C). Test compounds were diluted in DMSO in 3-fold serial dilutions at 100× final concentrations. […] The assay was run at ambient temperature in a white 384-well polypropylene plate (Nunc, Inc of Naperville, Ill.; Cat. 267462) collecting data every 50 seconds for approximately 30 minutes on an Envision plate reader (PerkinElmer, Inc. of Waltham, Mass.); Excitation 340 nm/Emission 495 nm.

Mitogen-activated protein kinase 1, sequence (P28482 whole entry, the tested form may be a part): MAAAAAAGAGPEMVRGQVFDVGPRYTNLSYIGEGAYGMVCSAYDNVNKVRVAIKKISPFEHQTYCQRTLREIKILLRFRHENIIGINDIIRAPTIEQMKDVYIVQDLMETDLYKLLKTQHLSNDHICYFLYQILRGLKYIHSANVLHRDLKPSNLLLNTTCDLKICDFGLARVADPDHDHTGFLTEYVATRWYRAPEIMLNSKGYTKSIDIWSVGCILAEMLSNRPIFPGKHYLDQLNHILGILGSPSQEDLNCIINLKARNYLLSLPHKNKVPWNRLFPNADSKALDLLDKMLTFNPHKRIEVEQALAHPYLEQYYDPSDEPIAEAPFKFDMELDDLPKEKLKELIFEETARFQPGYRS

As for `Cn1nccc1Nc1cc2nc(C(=O)N[C@H](CO)c3ccc(Cl)c(F)c3)ccc2cn1`, the IC50 is 0.748 nM.

The IC50 is the concentration that inhibits the measured activity by half.

The values are drawn from ChEMBL document CHEMBL3886802, “Serine/threonine kinase inhibitors” (2016).
